From US7288573B2, “Method of repelling insects” (priority 2001, dated 2007)
Several values for one entry are separate records, joined by “and”; a condition that tells them apart may be missing. Identical values can stand only once. Entries after “also recorded” stand apart in the source; their conditions may differ.

Tests used:
Culex spp. = test: Mosquito repellency of 2-undecanone and 2-tridecanone, treated arm in cage (Example 6); assay type: in vivo; settings: for No. landings: single replicates; for observed repellent / residual activity (words): observed up to 24 hours post-treatment
Description: Cages. The same two mosquitoes cages described in Example 5 were used for this example. The cages were constructed using wood framing and fine mesh wire screen. The dimensions of each cage were 59 cm high×55 cm wide by 59 cm deep. A hinged access door was installed at the front of each chamber for insertion of the water-filled containers filled with mosquito pupae. Also present at the front of each chamber was a 9 cm diameter plastic tube (i.d.) for insertion of the arm of the investigator. The arm insertion tube was sealed with a rubber stopper when not in use.
Mosquitoes and Mosquito Rearing. Mosquitoes (Culex spp.) were obtained (as pupae and larvae) from Carolina Biological Supply Co., Burlington, N.C., USA in two successive shipments, so as to provide a continuing long term supply of fresh insects. Following their arrival, the mosquitoes were divided into approximately equal numbers in multiple water-filled containers and placed in the two cages described above. The larval and pupal cultures were fed with insect rearing compound. In addition, the water was changed regularly by filtration to minimize contamination and prevent overcrowding. Continuous culturing made it possible to increase the mosquito numbers to more than 100 insects per cage.
Test Compounds and Testing Schedule. Testing was done with two compounds, 2-undecanone, and 2-tridecanone, for repellent activity by treating one arm of the investigator with approximately 1 ml of the test solution. Following several minutes for solvent evaporation, the treated arm was inserted through the insertion tube for 5 minutes. The other arm was treated with isoprbpanol (control) or a different concentration of the compound, and inserted into the insertion tube of the adjacent chamber. Next, the behavior of the mosquitoes in response to the presence of the investigator's arms was noted. Mosquito behavior was recorded as 1) landing or attempting to land on the investigator's arm, or coming to rest on the wire screen immediately adjacent to the investigator's arm or hand, versus 2) dispersal away from the treated arm towards the opposite ends of the cage. The approximate number of mosquitoes present at the beginning of the observations was noted. For treatments with 2-undecanone, observations were made initially to confirm 100% repellent activity of the compound immediately after treatment but observations were not recorded. Recording of efficacy was delayed until 6 hours after treatment, and then repeated at 12 and 24 hours post-treatment. For treatment with 2-tridecanone, the observations commenced immediately after solvent drying; then, the observations were repeated (without re-treatment of the investigator's hand and arm) after 6 hours, 12 hours and 24 hours. Treatments were alternated between the different cages. […]
2-tridecanone was obtained as a solid. To prepare this compound for testing, it was subjected to gentle heating in a 37° C. water bath to liquefy it, and aliquots of the stock were diluted volume: volume with isopropanol to 50% concentration and 20% concentration. Sufficient pure compound was retained for direct application (undiluted).
Tests were done at concentrations of 100%, 50%, and 20% for each of the two compounds, as well as 20% DEET, and the isopropanol control.
Table 3 presents the efficacy found at the different time intervals for each of the compounds at the three different concentrations and for DEET. Efficacy was calculated according to the formula: [(no. landings/no. present in control)−(no. landings/no. present in experinental) divided by (no. landings/no. present in control)]×100.

Aedes albopictus = test: One-minute biting counts on treated forearm (Example 7); assay type: in vivo
Experimental: This experiment was performed to evaluate the comparative repellency of 5% and 20% 2-undecanone in ethanol, 20% 2-tridecanone in isopropanol and Off!™ 14.25% DEET Insect Repellent aerosol against Aedes albopictus (Asian tiger mosquitoes) and Culex quinquefasciatus (southern house mosquitoes).
Three to four-day-old laboratory-reared female Ae. albopictus and Cx. quinquefasciatus were transferred by aspiration into eight cages measuring 10 inches high×10 inches wide×13 inches deep at a targeted stocking rate of 100 and 200, respectively. Four cages contained Ae. albopictus and four contained Cx. quinquefasciatus. A greater number of Cx. quinquefasciatus was used to compensate for lower biting activity anticipated for this species. The actual number of females per cage was lower than the target-stocking rate because of the high number of males that were inadvertently introduced into the cages. Each cage contained a screened back wall, clear Plexiglas top, stockinette entry sleeve and solid aluminum floor and sidewalls. The mosquitoes were fed water and sugar water prior to and between tests. The tests were conducted over four days, Aug. 7-10, 2001, with four men participating as testers. All testers washed both arms with a non-fragrance soap, rinsed and swabbed with 25% ethanol prior to applying treatments. Treatments were applied to the forearm in a region extending from the wrist to a point measured at 12″ back from the tip of the index finger on both arms. The 20% 2-tridecanone was not applied as uniformly as the other repellents because an insufficient quantity was available. Latex gloves were worn over the hands and replaced before each biting count. The control consisted of a soap wash, rinse and 25% ethanol swab and was conducted by the same person throughout the study. One-minute biting counts were recorded at 0, 1, 2, 4 & 6 hours post-treatment time intervals. All treatments were randomly assigned to each tester, two treatments per tester. Cage placement was also randomized at the beginning of each day of testing. Testers were rotated each day so that by the end of the study they had occupied each cage location. Each repellent was tested two times by three testers so that mean biting counts were based on six observations. A Hobo datalogger was used to monitor temperature and humidity throughout the study.
A balanced incomplete block design following American Society for Testing and Materials standards E 939-94 was employed. Data were normalized by square root transformation and submitted to analysis of variance and mean separation procedures via SS PC. Microsoft Excel 2000 pivot tables and charting functions were used to plot mean biting counts and standard errors by species and time interval for each treatment and control. Mean biting counts were transformed to percent protection or repellency by the following formula: Control−Treatment/Control×100.

[1] = 20% concentration, 6 hours after treatment
[2] = 20% concentration, 12 hours after treatment
[3] = 20% concentration, 24 hours after treatment
[4] = 50% concentration, 6 hours after treatment
[5] = 50% concentration, 6 hours after treatment, listed as IBI-246
[6] = 50% concentration, 12 hours after treatment
[7] = 50% concentration, 12 hours after treatment, listed as IBI-246
[8] = 50% concentration, 24 hours after treatment
[9] = 50% concentration, 24 hours after treatment, listed as IBI-246
[10] = 100% concentration, 6 hours after treatment
[11] = 100% concentration, 12 hours after treatment
[12] = 100% concentration, 24 hours after treatment

## CCCCCCCCCC(C)=O [2-undecanone]
Culex spp.; 20% concentration, 0 hours
  Percent Efficacy Post-Treatment: 100%
Culex spp.; 20% concentration, 6 hours
  Percent Efficacy Post-Treatment: 46.6%
Culex spp.; [1]
  No. landings, Mean: 0.7
  Percent = [(No. landings/No. present)] × 100: 2.5%
  No. landings: 0 (2×) and 2
Culex spp.; 20% concentration, 6 hours after treatment, listed as 2-Undecanone
  Percent = [(No. landings/No. present)] × 100: 7.1%
Culex spp.; 20% concentration, 12 hours
  Percent Efficacy Post-Treatment: 0%
Culex spp.; [2]
  No. landings, Mean: 5.0
  Percent = [(No. landings/No. present)] × 100: 17.1%
  No. landings: 5 and 6 and 4
Culex spp.; 20% concentration, 12 hours after treatment, listed as 2-Undecanone
  Percent = [(No. landings/No. present)] × 100: 17.1%
Culex spp.; 20% concentration, 24 hours
  Percent Efficacy Post-Treatment: 0%
Culex spp.; [3]
  No. landings, Mean: 4.0
  Percent = [(No. landings/No. present)] × 100: 13.4%
  No. landings: 4
Culex spp.; 20% concentration, 24 hours after treatment, listed as 2-Undecanone
  Percent = [(No. landings/No. present)] × 100: 13.8%
Culex spp.; 50% concentration, 0 hours
  Percent Efficacy Post-Treatment: 100%
Culex spp.; 50% concentration, 6 hours
  Percent Efficacy Post-Treatment: 83.5%
Culex spp.; [4]
  No. landings, Mean: 1.3
  Percent = [(No. landings/No. present)] × 100: 1.1%
Culex spp.; [5]
  Percent = [(No. landings/No. present)] × 100: 2.2%
  No. landings: 0 (3×) and 1 and 3 and 4
Culex spp.; 50% concentration, 12 hours
  Percent Efficacy Post-Treatment: 65.3%
Culex spp.; [6]
  No. landings, Mean: 7.2
  Percent = [(No. landings/No. present)] × 100: 5.8%
Culex spp.; [7]
  Percent = [(No. landings/No. present)] × 100: 5.8%
  No. landings: 1 and 2 (2×) and 13 (2×) and 12
Culex spp.; 50% concentration, 24 hours
  Percent Efficacy Post-Treatment: 56.5%
Culex spp.; [8]
  No. landings, Mean: 7.5
  Percent = [(No. landings/No. present)] × 100: 5.7%
Culex spp.; [9]
  Percent = [(No. landings/No. present)] × 100: 5.7%
  No. landings: 3 and 2 (2×) and 11 (2×) and 16
Culex spp.; 100% concentration, 0 hours
  Percent Efficacy Post-Treatment: 100%
Culex spp.; 100% concentration, 6 hours
  Percent Efficacy Post-Treatment: 100%
Culex spp.; [10]
  No. landings, Mean: 0
  Percent = [(No. landings/No. present)] × 100: 0%
  No. landings: 0
Culex spp.; 100% concentration, 12 hours
  Percent Efficacy Post-Treatment: 48.5%
Culex spp.; [11]
  No. landings, Mean: 1.7
  Percent = [(No. landings/No. present)] × 100: 8.6%
  No. landings: 3 and 1 (2×)
Culex spp.; 100% concentration, 12 hours after treatment, listed as 2-Undecanone
  Percent = [(No. landings/No. present)] × 100: 8.6%
Culex spp.; 100% concentration, 24 hours
  Percent Efficacy Post-Treatment: 0%
Culex spp.; [12]
  No. landings, Mean: 3.0
  Percent = [(No. landings/No. present)] × 100: 19.1%
  No. landings: 3
Culex spp.; 100% concentration
  observed repellent / residual activity (words): absent after 24 hours post-treatment
Culex spp.; 100% concentration, listed as 2-Undecanone
  observed repellent / residual activity (words): Comments: Strong avoidance response was still evident at 6 hours. Avoidance was much; also recorded: weaker after 12 hours and no obvious avoidance, no dispersal away from the treated
Culex spp.; 100%, 50% and 20% concentrations, 0 to 24 hours
  overall repellent activity, comparison of the two compounds: greatest activity overall
Aedes albopictus; 5% formulation
  mean biting count, mean separation test versus the 20% formulations: significantly (p=0.05) lower mean biting count than the other two formulations
Aedes albopictus; 5% formulation, initial value
  repellency: 100%
Aedes albopictus; 5% formulation, value to which repellency diminished
  repellency: upper 60 percentile
Aedes albopictus; 20% formulations, post-treatment time intervals
  repellency: low repellency
Aedes albopictus; Off! 14.25% DEET, 5% 2-undecanone
  performance during the first biting count: worked well
